Test system: BBMVs (kidney brush border membrane vesicles)
Experiment: Incubation test with BBMVs (kidney brush border membrane vesicles)
Assay type: in vitro ADME, male Wistar rat
Details: 37° C., two hours
Procedure: Kidney brush border membrane vesicles (BBMVs) were prepared from the kidney of a male Wistar rat (200 to 250 g) in accordance with the method of Hori et al. [Biochemical Pharmacology 45: 1763-1768, 1993]. All the operations were carried out on ice. From four to five times the mass of 300 mM mannitol and a 12 mM tris hydrochloride buffer solution (pH 7.1) containing 5 mM EGTA were added to the cortex, and the mixture was homogenized with a Polytron Homogenizer PT-3100 (manufactured by Kinematica GmgH) for two minutes, and diluted with the same buffer solution, so as to obtain a 10% homogenate. […] The BBMVs thus prepared were evaluated for the incorporation of the lysosome enzyme by measuring the activity of β-galactosidase as a lysosome marker enzyme using p-nitrophenyl-β-D-galacto-pyranoside [Plant Physiology 55: 94-98, 1975]. Further, the activities of γ-glutamyl transferase and aminopeptidase were measured by using L-γ-glutamyl-p-nitroanilide and L-leucine-p-nitroanilide in accordance with the methods of Glossmann et al. [FEBS Letters 19: 340-344, 1972], Kramers et al. [European Journal of Biochemistry 99: 345-351, 1979].
The incubation test of BBMVs and a ^67Ga-labeled low-molecular model substrate was carried out in the following manner. […] The supernatant obtained was analyzed by HPLC at a flow rate of 1 mL/min. using an Imtakt Unison US-C18 150 mm×4.6 mm column. […]

^67Ga-NOTA-Phe-Gly-Lys(Bzo) [^67Ga-labeled NOTA-Phe-Gly-Lys(Bzo)]
amount of radioactive metabolite released by BBMVs, compared with ^67Ga-labeled NOTA-Met-Val-Lys(Bzo): lower than the amount of ^67Ga-labeled-NOTA-Met released from ^67Ga-labeled NOTA-Met-Val-Lys(Bzo)
radioactive metabolite peak observed after incubation with BBMVs (HPLC of supernatant): A peak of ^67Ga-labeled-NOTA-Phe-Gly was observed, not a peak of ^67Ga-labeled-NOTA-Phe

Reference: patent US20260216383A1, “RADIOLABELED MEDICINE” (National University Corporation Chiba University, priority 2022, published 2026)
